This is an account of results in paper PMC5346982, “Antimalarial Properties of Simplified Kalihinol Analogues” (ACS Medicinal Chemistry Letters, 2017).

Several values for one entry are separate records, joined by “and”; a condition that tells them apart may be missing. Identical values can stand only once. Like-named read-outs stand apart in the source and are kept apart here.

For data set [1] the following is noted: microsomes; cited from earlier work.
The next data set is described as follows: in vitro. The conditions noted are these: mouse, microsomes, pH 7.4.
Data set [2] in a line: Microsomal stability assay, human liver microsomes. It is filed as in vitro ADME. As to conditions: pH 7.4. Here is the method: Reference compound Ketanserin
Sample size Duplicates (n=2)
Bioanalytical method LC-MS/MS
Microsomal Liver Weight per Hepatic
Species Protein Kilogram of Body Scaling Factora Blood Flow
per Gram of Liver Weight (mL/min/kg)
Test Article Species Percent Remaining (%) T1/2 Clint
1. Historic data of ketanserin:
Detection method UPLC-MS/MS-29(API6500+)
Internal standard (s) Osalmid, imipramine
MS conditions Positive ion, ESI
Mobile phase A: 0.025%FA/1mM NH4OAc/H2O
2. Reference compouds(Ketanserin) and test compounds spiking solution: […]

The conditions of data set [3]: microsomes; cited from earlier work. The source holds these as a separate data set.
Data set [4] has as its system FCR-3 Plasmodium falciparum. Set-up: method as in doi:10.1016/S0040-4020(98)00818-7. As to conditions: chloroquine-resistant FCR-3 strain; cited from earlier work.
A further data set relates to P. falciparum W2. The conditions noted are these: drug-resistant W2 strain; Figure 1; cited from earlier work.
Data set [5] relates to P. falciparum Dd2. As to conditions: Wood group, cited from earlier work.
The next data set concerns P. falciparum HB3. The conditions noted are these: Wood group, cited from earlier work.
Data set [6] has as its system P. falciparum Dd2. Kind of data set: SYBR Green based parasite proliferation assay, chloroquine-resistant Dd2 strain. It is filed as cell-based, Plasmodium falciparum.
A further data set relates to P. falciparum 3D7. Kind of data set: SYBR Green based parasite proliferation assay, drug-sensitive 3D7 strain. The class given is cell-based, Plasmodium falciparum.
Setting [7] is: drug-resistant Dd2 strain, 72 h incubation, n = 3, read-out: IC50.
[8] abbreviates: drug-sensitive 3D7 strain, 72 h incubation, n = 3, read-out: IC50.

Consider `O=C(c1ccc(F)cc1)C1CCN(CCn2c(=O)[nH]c3ccccc3c2=O)CC1` [ketanserin], for which the “T1/2 (Mouse), historic data” value in data set [1] was 18.27 ± 3.89 min. In addition, in “in vitro”, the CLint scaled at 1 µM came out at 267 mL/min/kg; the half-life at 1 µM came out at 20.4 min; the fraction remaining at 0 h, 1 µM was 100%; the fraction remaining at 5 min, 1 µM was found to be 79.9%. Moreover, in “in vitro”, the share remaining at 0.25 h, 1 µM came out at 55.5%; the amount remaining at 0.5 h, 1 µM turned out to be 32.9%; the fraction remaining at 0.75 h, 1 µM came out at 21.7%. In data set [2] (human, microsomes), this compound yielded a CLint scaled at 1 µM of 40 mL/min/kg; an amount remaining at 5 min, 1 µM of 88.4%; an amount remaining at 0.25 h, 1 µM of 77%; an amount remaining at 0.5 h, 1 µM of 62.5%. The amount remaining at 0.75 h, 1 µM in data set [2] (human, microsomes) was found to be 47.3%. In data set [2] (human liver microsomes 0.5 mg/mL, 1 µM, 37°C), this compound had a half-life at 1 µM of 43.4 min. The “T1/2 (Human), historic data” value in data set [3] was 39.69 ± 6.36 min.

As for kalihinol A [compound 1], the IC50 in data set [4] was 1.2 nM.

6-hydroxy-kalihinene [compound 3]: the IC50 in [4] was 80 nM.

7,20-diisocyanoadociane [compound 4]: in the data set with P. falciparum W2, the IC50 is 13 nM.

`[C-]#[N+]C1C2C(C(C)C)CCC(C)([N+]#[C-])C2CCC1(C)O` (racemic) [(±)-22]: the IC50 in the data set with P. falciparum Dd2 [5] (Dd2) and in the data set on P. falciparum HB3 (HB3) was 80 nM each time.

Regarding `CCN(CC)CCCC(C)Nc1ccnc2cc(Cl)ccc12` (stereo not shown) [Chloroquine], the IC50 in the data set with P. falciparum Dd2 [6] (Plasmodium falciparum, DD2, read-out: Chloroquine IC50 [µM], Dd2 strain, antimalarial standard run alongside each compound) is 0.0275 µM; in the data set with P. falciparum Dd2 [6] (read-out: Chloroquine IC50, Dd2 strain, antimalarial standard run alongside each compound) it was 0.0322 µM and 0.0337 µM and 0.0497 µM and 0.0521 µM; with P. falciparum 3D7 (Plasmodium falciparum, 3D7, read-out: Chloroquine IC50 [µM], 3D7 strain, antimalarial standard run alongside each compound), 0.0063 µM; in the data set with P. falciparum 3D7 (read-out: Chloroquine IC50, 3D7 strain, antimalarial standard run alongside each compound), 0.0052 µM and 0.0066 µM and 0.0059 µM and 0.0091 µM and 0.0089 µM and 0.0058 µM and 0.0061 µM.

Consider kalihinol B [compound 2], for which the “IC50” value in the data set on P. falciparum Dd2 [6] (Dd2 strain) is 0.0018 µg/mL; with P. falciparum Dd2 [6] (setting [7]), 0.0046 µM; in the data set on P. falciparum 3D7 (3D7 strain), 0.0033 µg/mL; in the data set on P. falciparum 3D7 (setting [8]) it was 0.0084 µM.

In the case of 10-isocyano-4-cadinene [(±)-15], the IC50 was 2200 nM with P. falciparum Dd2 [5] (Dd2 (chloroquine-resistant)); 0.057 µg/mL in the data set with P. falciparum Dd2 [6] (Dd2 strain); 0.247 µM in the data set on P. falciparum Dd2 [6] (setting [7]); 2200 nM with P. falciparum HB3 (HB3 (chloroquine-sensitive)); 0.1631 µg/mL in the data set on P. falciparum 3D7 (3D7 strain); 0.705 µM in the data set on P. falciparum 3D7 (setting [8]).
